# Data as given in BindingDB's records for doi:10.1021/jm401549m (Chiesi Farmaceutici, 2014).
# Target: cGMP-specific 3',5'-cyclic phosphodiesterase PDE5A (Homo sapiens) (UniProt O76074)
# Assay: Inhibition of human platelet PDE5
compound,measurement,value
CS(=O)(=O)Nc1ccc(C(=O)O[C@@H](Cc2c(Cl)c[n+]([O-])cc2Cl)c2ccc(OC(F)F)c(OCC3CC3)c2)cc1OCC1CC1 [Chf-6001],IC50,> 1000 nM
